Counter-ions that a name gives are not always drawn.
Target: T1, Leukotriene D4 receptor (Cavia porcellus, UniProt Q2NNR5)
T1 construct: The trachea and lung were removed; from tissue; host or cells: guinea pig (male Hartley) trachea and lung, crude membrane fraction
T1 sequence (Q2NNR5 1-340): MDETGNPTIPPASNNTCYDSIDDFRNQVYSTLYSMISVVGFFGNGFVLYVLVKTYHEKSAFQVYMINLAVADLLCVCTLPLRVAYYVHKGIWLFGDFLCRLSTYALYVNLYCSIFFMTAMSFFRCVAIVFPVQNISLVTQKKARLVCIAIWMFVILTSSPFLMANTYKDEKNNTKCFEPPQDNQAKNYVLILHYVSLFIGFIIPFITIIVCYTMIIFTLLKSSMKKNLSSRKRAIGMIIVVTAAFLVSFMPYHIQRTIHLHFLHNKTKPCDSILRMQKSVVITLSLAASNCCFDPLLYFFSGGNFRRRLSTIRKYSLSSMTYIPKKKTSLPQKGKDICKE
Assay: 3H-Leukotriene D4 receptor binding (guinea pig crude lung membrane)
Details: 3H-Leukotriene D4 (0.3 nM), pH 7.5, 25° C., 30 minutes
Procedure: ^3 H-Leukotriene D4 receptor binding (i) Test Method (a) Crude lung membrane preparation Male Hartly strain guinea pigs were sacrificed by decapitation. The trachea and lung were removed and homogenized buffer (0.25M sucrose, 10 mM Tris-HCl pH 7.5, 0.1 mM EDTA) by using Polytoron (Kinematica). The homogenate was centrifuged (1000×g, 10 min) to remove tissue clumps and the supernatant was centrifuges (14000×g, 20 min) to yield pellets. The pellets were resuspended in buffer (5 mM Tris-HCl pH 7.5), homogenized with a teflon homogenizer and centrifuged (14000×g, 20 min) to yield pellets which were referred to as crude membrane fractions. The obtained pellets were stored at -70° C. until use. (b) ^3 H-Leukotriene D4 binding to preparation membrane Frozen crude membrane fractions were thawed and resuspended in Medium 1 (10 mM Tris-HCl pH 7.5, 10 mM CaCl2, 10 mM MgCl2, 5 mM cysteine, 5 mM glycine). In binding assays, ^3 H-Leukotriene D4 (0.3 nM) and drug were incubated with 100 μl of the membrane preparation in Medium 1 at 25° C. for 30 minutes in a final volume of 500 μl. Separation of receptor-bound from free ^3 H-Leukotriene D4 is achieved by immediate filtration through Whatman GF/B filters under vacuum and washed three times with 5 ml of ice-cold buffer (10 mM Tris-HCl pH 7.5). Non-specific binding was defined as binding in the presence of 1 μM Leukotriene D4. The radioactivity retained on rinsed filters was determined by a liquid-scintillation counter (Packerd TRI-CARB 4530).

Row | SMILES | IC50 [nM]
1 | CC(C)(Cc1ccc2oc(-c3nc(C(C)(C)C)cs3)cc2c1)C(=O)Nc1nnn[nH]1 [19-2), 4-tert-Butyl-2-[5-{2-methyl-2-(1H-tetrazol-5-yl)carbamoylpropyl}benzofuran-2-yl]thiazole] | 67.7
2 | CC(C)(C)c1csc(-c2cc3cc(OCc4cccc(-c5nnn[nH]5)c4)ccc3o2)n1 [13-2), 5-{3-[2-(4-tert-Butylthiazol-2-yl)benzofuran-5-yloxymethyl]phenyl}-1H-tetrazole] | 17.8

Continued, values first:

Row | IC50 [nM] | SMILES
3 | 38.2 | CC(C)(C)c1csc(-c2cc3cc(OCc4ccccc4Cc4nnn[nH]4)ccc3o2)n1 [Example 12, 5-{2-(2-(4-tert-butylthiazol-2-yl)benzofuran-5-yloxymethyl]phenylmethyl}-1H-tetrazole]
4 | 13.8 | CC(C)(C)c1csc(-c2cc3cc(OCc4ccccc4CC(=O)O)ccc3o2)n1 [Example 51, 4-tert-butyl-2-[5-(2-carboxymethylphenylmethoxy)benzofuran-2-yl]thiazole hydrochloride]
5 | 48.8 | Cc1ccccc1S(=O)(=O)NC(=O)c1ccccc1COc1ccc2oc(-c3nc(C(C)(C)C)cs3)cc2c1 [Example 18, 4-tert-butyl-2-{5-[2-(2-methylbenzenesulfonamidocarbonyl)phenylmethoxy]benzofuran-2-yl}thiazole]

Reference: patent US5296495A, “Thiazolylbenzofuran derivatives and pharmaceutical composition comprising the same” (Fujisawa Pharmaceutical Co., Ltd., priority 1991, dated 1994)
